Source: US9757403B2, “Glycan therapeutics and related methods thereof” (KALEIDO BIOSCIENCES, INC., priority 2015, dated 2017)

System: Clostridium difficile (strain VPI 10463 (ATCC-43255))
Assay: Mouse model of Clostridium difficile infection, disease-associated phenotypes and spore carriage
Assay type: in vivo, Mice (female C57BL/6)
Method: This experiment was conducted to analyze the effects of glycan therapeutics in a mouse model of Clostridium difficile infection (Chen et al, 2008, A Mouse Model of Clostridium difficile-Associated Disease. Gastroenterology 135(6), 1984-1992). In this model, normal mice were exposed to an antibiotic regimen that renders them susceptible to C. difficile infection and disease symptoms, similar with respect to their development and manifestation of human clinical disease. In humans, the disease is most often the result of exposure to broad spectrum antibiotics which is thought to result in intestinal dysbiosis and subsequent increased colonic colonization with C. difficile. […]
Disease-associated phenotypes were recorded for a duration of ten days starting on the day of Clostridium difficile challenge (on day 0) through day 10. The phenotypes, including lethargy, hunched posture and ruffled coat, wet tail/abdomen and hypothermia were scored from 0 to 4: Normal=0; Lethargic=1; Lethargic+Hunched=2; Lethargic+Hunched+Wet tail/abdomen (diarrhea)=3; and Lethargic+Hunched+Wet tail/abdomen+Hypothermic=4. Death (day 0 to day 10 or 11) and weight (day 1 to day 7 and day 10) of the animals was also monitored and recorded.
In addition, carriage of Clostridium difficile spores, which is indicative of Clostridium difficile gut colonization in both mice and humans, was assessed daily from day 0 to day 6. […]

CN[C@H](CC(C)C)C(=O)N[C@H]1C(=O)N[C@@H](CC(N)=O)C(=O)N[C@H]2C(=O)N[C@H]3C(=O)N[C@H](C(=O)N[C@H](C(=O)O)c4cc(O)cc(O)c4-c4cc3ccc4O)[C@H](O)c3ccc(c(Cl)c3)Oc3cc2cc(c3O[C@@H]2O[C@H](CO)[C@@H](O)[C@H](O)[C@H]2O[C@H]2C[C@](C)(N)[C@H](O)[C@H](C)O2)Oc2ccc(cc2Cl)[C@H]1O [Vancomycin, vancomycin]
clinical signs on day 10 (PO gavage QD days 0 to 4): exhibited clinical signs
clinical score of survivors (score 0 to 4, after end of treatment, days 7 to 10): above 0
